This passage reports Kd results from patent US20130261077A1 (priority 2012, published 2013).

What is called Kd is the equilibrium constant for the complex coming apart. Read a low Kd as higher affinity.

The target of this test is T1, FimH-CRD (Escherichia coli, UniProt P08191).
T1 construct: The first 177 amino acids of the FimH protein; thrombin tag (printed as 'fusion protein with thrombin') (cleaved yes); made in house; host or cells: bacteria (pET21b plasmid)
T1 sequence (P08191 22-177): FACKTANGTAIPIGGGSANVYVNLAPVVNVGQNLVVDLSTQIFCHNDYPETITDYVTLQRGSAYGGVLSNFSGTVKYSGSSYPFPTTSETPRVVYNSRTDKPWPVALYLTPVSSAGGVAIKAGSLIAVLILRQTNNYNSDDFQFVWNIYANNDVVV
Description: Competitive binding assay by fluorescence polarization, assay 2 (compounds prepared by robotics, plates frozen and thawed). The method in brief:
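Compounds at 0.4 nM–75 μM final (12 points, 3-fold steps, duplicate) compete with a 5 nM Alexa 647 mannoside probe for 60 nM FimH-CRD; 5 h room-temperature incubation in pH 7.0 Tris buffer with 2.5% DMSO, FP read-out, Kd from fitted curves. Assay 1 uses manual dilution, assay 2 robot-made frozen/thawed plates.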
In general terms: Fluorescence polarisation rises when a labelled molecule tumbles more slowly, as on binding a larger partner.
`N#Cc1ccc(Oc2cccc([C@H]3O[C@H](CO)[C@@H](O)[C@H](O)[C@@H]3O)c2)cc1` [Compound 185, 4-[3-[(2R,3S,4R,5S,6R)-3,4,5-trihydroxy-6-(hydroxymethyl)tetrahydropyran-2-yl]phenoxy]benzonitrile] gave a Kd of 11.7 ± 7.5 nM.
On to `CC(=O)c1ccc(Oc2cccc([C@H]3O[C@H](CO)[C@@H](O)[C@H](O)[C@@H]3O)c2)cc1` [Compound 186, 1-[4-[3-[(2R,3S,4R,5S,6R)-3,4,5-trihydroxy-6-(hydroxymethyl)tetrahydropyran-2-yl]phenoxy]phenyl]ethanone], for which the Kd amounted to 12.3 ± 8.9 nM.
In the case of `CNC(=O)c1ccc(Oc2cc([C@H]3O[C@H](CO)[C@@H](O)[C@H](O)[C@@H]3O)ccc2OC)cc1` [Compound 187, 4-[2-methoxy-5-[(2R,3S,4R,5S,6R)-3,4,5-trihydroxy-6-(hydroxymethyl)tetrahydropyran-2-yl]phenoxy]-N-methyl-benzamide], the Kd was found to be 9.9 ± 1.9 nM.
Consider `CNC(=O)c1cccc(Oc2cc([C@H]3O[C@H](CO)[C@@H](O)[C@H](O)[C@@H]3O)ccc2OC)c1` [Compound 188, 3-[2-methoxy-5-[(2R,3S,4R,5S,6R)-3,4,5-trihydroxy-6-(hydroxymethyl)tetrahydropyran-2-yl]phenoxy]-N-methyl-benzamide], for which binding was characterised by a dissociation constant (Kd) of 11.1 ± 1.1 nM.
For `COC(=O)c1ccc(Oc2cc([C@H]3O[C@H](CO)[C@@H](O)[C@H](O)[C@@H]3O)ccc2OC)cc1` [Compound 189, Methyl-4-[2-methoxy-5-[(2R,3S,4R,5S,6R)-3,4,5-trihydroxy-6-(hydroxymethyl)tetrahydropyran-2-yl]phenoxy]benzoate] the value was 8.1 ± 2.7 nM; for `OC[C@H]1O[C@H](c2cccc(O)c2F)[C@@H](O)[C@@H](O)[C@@H]1O` [Compound 190, (2R,3S,4R,5S,6R)-2-(2-fluoro-3-hydroxy-phenyl)-6-(hydroxymethyl)tetrahydropyran-3,4,5-triol], 24.1 ± 15.3 nM; for `OC[C@H]1O[C@H](c2cc(O)ccc2OC(F)(F)F)[C@@H](O)[C@@H](O)[C@@H]1O` [Compound 191, (2R,3S,4R,5S,6R)-2-(hydroxymethyl)-6-[5-hydroxy-2-(trifluoromethoxy)phenyl]tetrahydropyran-3,4,5-triol], 37.4 ± 17.2 nM.
Under `OC[C@H]1O[C@H](c2cc(O)ccc2F)[C@@H](O)[C@@H](O)[C@@H]1O` [Compound 192, (2R,3S,4R,5S,6R)-2-(2-fluoro-5-hydroxy-phenyl)-6-(hydroxymethyl)tetrahydropyran-3,4,5-triol] stands 56.5 ± 9.1 nM.
Under `OC[C@H]1O[C@H](c2ccc(F)c(O)c2)[C@@H](O)[C@@H](O)[C@@H]1O` [Compound 193, (2R,3S,4R,5S,6R)-2-(4-fluoro-3-hydroxy-phenyl)-6-(hydroxymethyl)tetrahydropyran-3,4,5-triol] stands 30.6 ± 1.1 nM; under `Cc1cc(O)cc([C@H]2O[C@H](CO)[C@@H](O)[C@H](O)[C@@H]2O)c1` [Compound 194, (2R,3S,4R,5S,6R)-2-(hydroxymethyl)-6-(3-hydroxy-5-methyl-phenyl)tetrahydropyran-3,4,5-triol], 31 ± 29.4 nM.
`CNC(=O)c1ccc(Oc2ccc(OC(F)(F)F)c([C@H]3O[C@H](CO)[C@@H](O)[C@H](O)[C@@H]3O)c2)cc1` [Compound 195, N-methyl-4-[4-(trifluoromethoxy)-3-[(2R,3S,4R,5S,6R)-3,4,5-trihydroxy-6-(hydroxymethyl)tetrahydropyran-2-yl]phenoxy]benzamide] had a Kd of 178 ± 60.9 nM.
The molecule `CNC(=O)c1ccc(Oc2cc([C@H]3O[C@H](CO)[C@@H](O)[C@H](O)[C@@H]3O)ccc2F)cc1` [Compound 197, 4-[2-fluoro-5-[(2R,3S,4R,5S,6R)-3,4,5-trihydroxy-6-(hydroxymethyl)tetrahydropyran-2-yl]phenoxy]-N-methyl-benzamide] returned a Kd of 11.7 ± 2.8 nM.
`CNC(=O)c1ccc(Oc2cccc([C@H]3O[C@H](CO)[C@@H](O)[C@H](O)[C@@H]3O)c2F)cc1` [Compound 198, 4-[2-fluoro-3-[(2R,3S,4R,5S,6R)-3,4,5-trihydroxy-6-(hydroxymethyl)tetrahydropyran-2-yl]phenoxy]-N-methyl-benzamide] yielded a Kd of 10.8 ± 5.2 nM.
Take `CNC(=O)c1ccc(Oc2cc(C)cc([C@H]3O[C@H](CO)[C@@H](O)[C@H](O)[C@@H]3O)c2)cc1` [Compound 199, N-methyl-4-[3-methyl-5-[(2R,3S,4R,5S,6R)-3,4,5-trihydroxy-6-(hydroxymethyl)tetrahydropyran-2-yl]phenoxy]benzamide]: the Kd amounted to 8.3 ± 2.2 nM.
`CNC(=O)c1cccc(Oc2cccc([C@H]3O[C@H](CO)[C@@H](O)[C@H](O)[C@@H]3O)c2F)c1` [Compound 200, 3-[2-fluoro-3-[(2R,3S,4R,5S,6R)-3,4,5-trihydroxy-6-(hydroxymethyl)tetrahydropyran-2-yl]phenoxy]-N-methyl-benzamide] registered a Kd of 8.4 ± 0.8 nM.
For the molecule `CNC(=O)c1cccc(Oc2ccc(OC(F)(F)F)c([C@H]3O[C@H](CO)[C@@H](O)[C@H](O)[C@@H]3O)c2)c1` [Compound 201, N-methyl-3-[4-(trifluoromethoxy)-3-[(2R,3S,4R,5S,6R)-3,4,5-trihydroxy-6-(hydroxymethyl)tetrahydropyran-2-yl]phenoxy]benzamide], the Kd was 103 ± 1.8 nM.
For `CNC(=O)c1cccc(Oc2ccc(F)c([C@H]3O[C@H](CO)[C@@H](O)[C@H](O)[C@@H]3O)c2)c1` [Compound 202, 3-[4-fluoro-3-[(2R,3S,4R,5S,6R)-3,4,5-trihydroxy-6-(hydroxymethyl)tetrahydropyran-2-yl]phenoxy]-N-methyl-benzamide], binding was put at a Kd of 19.2 ± 3.8 nM.
Regarding `CNC(=O)c1cccc(Oc2cc([C@H]3O[C@H](CO)[C@@H](O)[C@H](O)[C@@H]3O)ccc2F)c1` [Compound 203, 3-[2-fluoro-5-[(2R,3S,4R,5S,6R)-3,4,5-trihydroxy-6-(hydroxymethyl)tetrahydropyran-2-yl]phenoxy]-N-methyl-benzamide], the Kd stood at 9.2 ± 1.2 nM.
For `CNC(=O)c1cccc(Oc2cc(C)cc([C@H]3O[C@H](CO)[C@@H](O)[C@H](O)[C@@H]3O)c2)c1` [Compound 204, N-methyl-3-[3-methyl-5-[(2R,3S,4R,5S,6R)-3,4,5-trihydroxy-6-(hydroxymethyl)tetrahydropyran-2-yl]phenoxy]benzamide], the affinity, expressed as Kd, was 10.6 ± 0.9 nM.
Take `OC[C@H]1O[C@H](c2ccc(Oc3ccccc3)cc2)[C@@H](O)[C@@H](O)[C@@H]1O` [Compound 205, (2R,3S,4R,5S,6R)-2-(hydroxymethyl)-6-(4-phenoxyphenyl)tetrahydropyran-3,4,5-triol]: binding was characterised by a dissociation constant (Kd) of 38.7 ± 16.2 nM.
On to `OC[C@H]1O[C@H](c2cccc(OCCF)c2)[C@@H](O)[C@@H](O)[C@@H]1O` [Compound 206, (2R,3S,4R,5S,6R)-2-[3-(2-fluoroethoxy)phenyl]-6-(hydroxymethyl)tetrahydropyran-3,4,5-triol], for which the Kd stood at 28.4 ± 6.2 nM.
The molecule `CCC(C)COc1cccc(C2O[C@H](CO)[C@@H](O)[C@H](O)[C@@H]2O)c1` (stereo partly shown) [Compound 207] came in with an equilibrium dissociation constant (Kd) of 9.4 ± 4.3 nM.
Under `OC[C@H]1OC(c2cccc(OCCCCC(F)(F)F)c2)[C@@H](O)[C@@H](O)[C@@H]1O` (stereo partly shown) [Compound 209] stands 12.5 ± 5.3 nM; under `OC[C@H]1OC(c2cccc(OCC3CCO3)c2)[C@@H](O)[C@@H](O)[C@@H]1O` (stereo partly shown) [Compound 210], 24.2 ± 1.3 nM.
Molecule `COC(=O)c1ccc(COc2cccc(C3O[C@H](CO)[C@@H](O)[C@H](O)[C@@H]3O)c2)cc1` (stereo partly shown) [Compound 211] came in with a Kd of 8 ± 2.4 nM.
In the case of `CNC(=O)COc1cccc(C2O[C@H](CO)[C@@H](O)[C@H](O)[C@@H]2O)c1` (stereo partly shown) [Compound 212], binding was put at a Kd of 18.9 ± 0.8 nM.
For `OC[C@H]1OC(c2cccc(OCc3ccc(-n4cncn4)cc3)c2)[C@@H](O)[C@@H](O)[C@@H]1O` (stereo partly shown) [Compound 213] the value was 9.3 ± 0.5 nM.
`CC1(COc2cccc(C3O[C@H](CO)[C@@H](O)[C@H](O)[C@@H]3O)c2)COC1` (stereo partly shown) [Compound 214] yielded a Kd of 12 ± 7.9 nM.
Molecule `OC[C@H]1OC(c2cccc(OCC3CCCCC3)c2)[C@@H](O)[C@@H](O)[C@@H]1O` (stereo partly shown) [Compound 215] yielded a Kd of 13.1 ± 3.9 nM.
`OC[C@H]1OC(c2cccc(OCCC3CCCCC3)c2)[C@@H](O)[C@@H](O)[C@@H]1O` (stereo partly shown) [Compound 216] came in with a Kd of 16.4 ± 5.2 nM.
`OC[C@H]1OC(c2cccc(OCCCc3ccccc3)c2)[C@@H](O)[C@@H](O)[C@@H]1O` (stereo partly shown) [Compound 217] displayed a Kd of 12.1 ± 7.6 nM.
`O=C(COc1cccc(C2O[C@H](CO)[C@@H](O)[C@H](O)[C@@H]2O)c1)C1CCCCC1` (stereo partly shown) [Compound 218]: the Kd turned out to be 8.7 ± 1.4 nM.
Molecule `O=C(NCCCOc1cccc(C2O[C@H](CO)[C@@H](O)[C@H](O)[C@@H]2O)c1)c1ccccc1` (stereo partly shown) [Compound 219] gave a Kd of 16.3 ± 5.1 nM.
For `OC[C@H]1OC(c2cccc(OCc3ccccc3-c3ccccc3)c2)[C@@H](O)[C@@H](O)[C@@H]1O` (stereo partly shown) [Compound 220], the Kd came to 16.6 ± 4.4 nM.
Molecule `Cc1nn(-c2ccccc2)nc1COc1cccc(C2O[C@H](CO)[C@@H](O)[C@H](O)[C@@H]2O)c1` (stereo partly shown) [Compound 221] returned a dissociation constant (Kd) of 8.2 ± 0.5 nM.
The molecule `OC[C@H]1OC(c2cccc(OCc3ccccc3)c2)[C@@H](O)[C@@H](O)[C@@H]1O` (stereo partly shown) [Compound 222] registered a Kd of 40.7 ± 1.2 nM.
Molecule `COC(=O)c1cccc(COc2cccc(C3O[C@H](CO)[C@@H](O)[C@H](O)[C@@H]3O)c2)c1` (stereo partly shown) [Compound 223] came in with a Kd of 23.2 ± 1.6 nM.
Turning to `CNC(=O)c1ccc(COc2cccc(C3O[C@H](CO)[C@@H](O)[C@H](O)[C@@H]3O)c2)cc1` (stereo partly shown) [Compound 225], binding was characterised by a dissociation constant (Kd) of 34.5 ± 12.3 nM.
`OC[C@H]1OC(c2cccc(OCc3cc(Cl)cc(Cl)c3)c2)[C@@H](O)[C@@H](O)[C@@H]1O` (stereo partly shown) [Compound 226] came in with a Kd of 32.1 ± 8.9 nM.
For `CNC(=O)c1cccc(COc2cccc([C@H]3O[C@H](CO)[C@@H](O)[C@H](O)[C@@H]3O)c2)c1` [Compound 227, N-methyl-3-[[3-[(2R,3S,4R,5S,6R)-3,4,5-trihydroxy-6-(hydroxymethyl)tetrahydropyran-2-yl]phenoxy]methyl]benzamide] the value was 37.1 ± 15.4 nM.
